Results reported in patent US6972175B2, “Inhibition of Egr-1 expression by ppar-gamma agonists and related compositions and methods” (priority 2002, dated 2005).

How the values were obtained:
[1] = tested on: Egr-1 mRNA; assay: Egr-1 mRNA levels by Northern blotting in hypoxic mononuclear phagocytes; assay type: cell-based, rat; conditions: NR8383 cells, ligand added 6 hours before 30 minutes hypoxia; Northern blot, FIG. 1a
Protocol: Cell culture and induction of hypoxia. A rat alveolar macrophage cell line (NR8383) was obtained from the ATCC (Manassas, Va.), and cells were grown to 70% confluence in Ham's F-12K medium containing 15% heat-inactivated fetal bovine serum. Cells were made quiescent by serum starvation (0.2%, fetal bovine serum) for 24 hours. The PPAR-γ ligands were obtained from the following sources: troglitazone was provided by Sankyo Pharmaceutical Co. (Tokyo, Japan); and 15-d-PGJ2 was purchased from Cayman Chemical Co. (Ann Arbor, Mich.). The PPAR-α ligand bezafibrate was obtained from Sigma Chemical Co. (St. Louis. Mo.). These PPAR ligands were dissolved in minute quantities of DMSO (final concentration 0.005%). PPAR ligands were added 6 hours prior to induction of hypoxia. […]

[2] = tested on: Egr-1; assay: Hypoxia-driven Egr-1 induction in macrophages (data not shown); assay type: cell-based
Protocol: (§1) Cell culture and induction of hypoxia. A rat alveolar macrophage cell line (NR8383) was obtained from the ATCC (Manassas, Va.), and cells were grown to 70% confluence in Ham's F-12K medium containing 15% heat-inactivated fetal bovine serum. Cells were made quiescent by serum starvation (0.2%, fetal bovine serum) for 24 hours. The PPAR-γ ligands were obtained from the following sources: troglitazone was provided by Sankyo Pharmaceutical Co. (Tokyo, Japan); and 15-d-PGJ2 was purchased from Cayman Chemical Co. (Ann Arbor, Mich.). The PPAR-α ligand bezafibrate was obtained from Sigma Chemical Co. (St. Louis. Mo.). These PPAR ligands were dissolved in minute quantities of DMSO (final concentration 0.005%). PPAR ligands were added 6 hours prior to induction of hypoxia. Using an environmental chamber described previously (Yan, 1999), cells were subjected to 30 minutes hypoxia (pO2 in the medium ˜12–14 torr. This time was chosen because it has previously been shown that this is the time of maximal Egr-1 expression in hypoxic macrophages. Cells subjected to hypoxia were placed in medium pre-equilibrated with the hypoxic gas mixture just prior to placement in the environmental chamber. Thus, cultures were immersed immediately in the oxygen-deprived environment at the time of medium change, coinciding with time of placement in the chamber.

[3] = tested on: Egr-1/DNA binding; assay: Electrophoretic mobility gel shift assay on nuclear extracts from NR8383 cells; assay type: cell-based, rat; conditions: nuclear extracts of NR8383 cells 30 minutes after hypoxia; 1 or 20 μM 15-d-PGJ2, 20 μM troglitazone, 20 μM bezafibrate; FIG. 1c
Protocol: as §1
Electrophoretic mobility gel shift assay. […]

[4] = tested on: Egr-1 protein; assay: Egr-1 protein expression by Western blotting in hypoxic mononuclear phagocytes; assay type: cell-based, rat; conditions: ligand added 6 hours before 30 minutes hypoxia; Western blot, FIG. 1b
Protocol: as §1
Western blotting. […]

[5] = Murine survival following lung ischemia/reperfusion injury; assay type: in vivo, mouse; conditions: 1 hour after circulatory exclusion of nonischemic lung
Protocol: Murine ischemia/reperfusion model. C57BL6/J mice (male, 12–15 weeks old) purchased from Jackson Laboratories (Bar Harbor, Me.) were used in these experiments according to a protocol approved by the Institutional Animal Care and Use Committee at Columbia University, in accordance with guidelines of the American Association for the Accreditation of Laboratory Animal Care.
Troglitazone was administered to mice by oral gavage (0.1 mL/mouse) for 7 days at doses of 0, 5, and 100 mg/kg/day, prepared as a suspension in 0.5% methylcellulose solution. For control experiments, methylcellulose solution alone was used for gavage (these experiments are referred to as “vehicle” controls). The ischemia/reperfusion stress followed on day 8. […] Survival was measured 1 hour after circulatory exclusion of the nonoperated lung (by ligating the right hilum), which was performed after both the ischemic and reperfusion (3 hours) periods had elapsed. […]
Statistics. […] Survival was estimated by the Kaplan-Meier method, with differences in survival determined by log-rank analysis. Values are expressed as mean±standard error of the mean (SEM), with differences considered statistically significant when p<0.05.

Compound	Egr-1 mRNA levels after hypoxia [1]	hypoxia-driven Egr-1 induction in macrophages [2]	potency of inhibition of hypoxia-induced Egr-1 expression compared with troglitazone ([2]; macrophages, parallel study)	gel shift band associated with Egr-1/DNA binding [3]	Egr-1 protein levels after hypoxia [4]	survival relative to vehicle-treated mice ([5]; vehicle 10% survival)	survival ([5]; 1 hour ischemia, 3 hours reperfusion, FIG. 4f)
CCCCCC=CC=C1C(=O)C=C[C@@H]1CC=CCCCC(=O)O [15-d-PGJ2, 15-deoxy-Δ^12,14-prostaglandinJ2]	significantly reduced	inhibited hypoxia-induced expression of Egr-1	equal potency as troglitazone	virtually abrogated	significantly inhibited	–	–
Cc1c(C)c2c(c(C)c1O)CCC(C)(COc1ccc(CC3SC(=O)NC3=O)cc1)O2 (stereo not shown) [troglitazone]	–	–	–	–	–	4 times	40%
